From patent publication US9182350B2, “Naphthalene-based two-photon fluorescent probes, preparation method and use thereof” (DALIAN UNIVERSITY OF TECHNOLOGY, priority 2012, dated 2015)
Values after ≈ are worked out from the molar mass of the structure shown.

Legend:
physchem = conditions: water
Source text: (§9) The absorbance of different concentrations of compound A2 solution at maximum absorption wavelength was detected. The results are representative value from replicate experiments (n=3).
(§10) The absorbance of different concentrations of compound A4 solution at maximum absorption wavelength was detected. The results are representative value from replicate experiments (n=3).
(§11) The experiment instrument is Agilent 8453 U-V spectrophotometer.

[1] = tested on: tumor tissue sections of mice' lungs; experiment: Two-photon fluorescence labeling of tumor tissue sections; conditions: sections soaked in probe PBS solution (10 μM), 30 min
Protocol: (§1) FIG. 8 is the two-photon fluorescent imaging of fluorescent probe compound A4 for the tumor tissues and non-tumor tissues of mice' lungs in example 11. The sections of tumor tissues and non-tumor tissues of mice' lungs were incubated with 4 μL of A4 (10.0 μM). The representative areas were selected and imaged with oil-immersion objective lens (100×). The resulting images are representative of replicate experiments (n=3). FIG. 8 (a1) and (a2) are the confocal images of tumor tissue sections of mice' lungs after adding probe A4, FIG. 8 (b1) and (b2) are the confocal images of non-tumor tissue sections of mice' lungs after adding probe A4. The images of FIG. 8 (a1) and (b1) were recorded with the emission in the range of 500-550 nm. The images of FIG. 8 (a2) and (b2) were recorded with the emission in the range of 570-650 nm.
(§2) FIG. 11 is two-photon fluorescent imaging of fluorescent probe compound A5 for the tumor tissues and non-tumor tissues of mice' lungs in example 15. The sections of tumor tissues and non-tumor tissues of mice' lungs were incubated with 4 μL of […] (10.0 μM). The representative areas were selected and imaged with oil-immersion objective lens (100×). […] The images of FIG. 11 (a1) and (b1) were recorded with the emission in the range of 500-550 nm. The images of FIG. 11 (a2) and (b2) were recorded with the emission in the range of 570-650 nm.
(§3) Tumor tissue sections and non-tumor tissues sections of mice' lungs were soaked in the compound A2 PBS solution (10 μM), respectively. After 30 min, take out the section, mounting, safekeeping, the fluorescence images were obtained by two-photon spectral confocal multiphoton microscope. […] The images were recorded with the emission in the range of 500-550 nm.
(§4) Tumor tissue sections and non-tumor tissues sections of mice' lungs were soaked in the compound A4 PBS solution (10 μM), respectively. After 30 min, take out the section, mounting, safekeeping, the fluorescence images were obtained by two-photon spectral confocal multiphoton microscope. […] The images were recorded with the emission in the range of 500-550 nm. […]

[2] = tested on: non-tumor tissue sections of mice' lungs; experiment: Two-photon fluorescence labeling of non-tumor tissue sections; conditions: sections soaked in probe PBS solution (10 μM), 30 min
Protocol: as §1, §2, §3, §4

HeLa cells = experiment: Two-photon fluorescence labeling of cancer cells; assay type: cell-based; conditions: 4 μL probe-DMSO solution (4 μM), 60 min, 5% CO2, 37° C., PBS wash
Protocol: (§5) FIG. 2 is the two-photon fluorescent imaging of fluorescent probe compound A1 in the tumor cells and non-tumor cells in example 2. Hela cells and HEK293 cells were incubated with 4 μL of A1-DMSO (4.0 μM) for 60 min in 5% CO2 at 37° C. The representative areas were selected and imaged with oil-immersion objective lens (100×). The resulting images are representative of replicate experiments (n=3). The images were recorded with the emission in the range of 500-550 nm. FIG. 2 (a) is confocal image of Hela cell, FIG. 2 (b) is confocal image of HEK293 cell.
(§6) FIG. 10 is two-photon fluorescent imaging of fluorescent probe compound A2 in the tumor cells and non-tumor cells in example 14. […] The images of FIG. 10 (a1) and (b1) were recorded with the emission in the range of 500-550 nm. The images of FIG. 10 (a2) and (b2) were recorded with the emission in the range of 570-650 nm.
(§7) Compound A1 was used, which was synthesized in the example 1. […] The fluorescence imaging was obtained with a two-photon spectral confocal multiphoton microscope. […] The images were recorded with the emission in the range of 500-550 nm.
(§8) Compound A5 was used, which was synthesized in the example 13. […] The fluorescence imaging was obtained with a two-photon spectral confocal multiphoton microscope. […] The images of FIG. 10(a1) and FIG. 10(b1) were recorded with the emission in the range of 500-550 nm. […]

HEK 293 cells = experiment: Two-photon fluorescence labeling of non-cancer cells; assay type: cell-based; conditions: 4 μL probe-DMSO solution (4 μM), 60 min, 5% CO2, 37° C., PBS wash
Protocol: as §5, §6, §7, §8

[3] = Water solubility experiment (absorbance vs concentration at maximum absorption wavelength)
Source text: as §9, §10, §11

SMILES: COc1ccc2c(c1)c(CC(=O)NCCCCCCNc1ccc3c4c(cccc14)-c1nc4ccccc4nc1-3)c(C)n2C(=O)c1ccc(Cl)cc1 [Compound A4]
- solubility (physchem): 24 µM (≈ 17 µg/mL)
- fluorescence signal in tumor tissue sections of mice' lungs (two-photon confocal imaging) [1]: strong fluorescence signals
- fluorescence signal in non-tumor tissue sections of mice' lungs (two-photon confocal imaging) [2]: no any fluorescence signals

SMILES: COc1ccc2c(c1)c(CC(=O)NCCCCCCNc1ccc3c4c(cccc14)C(=O)N(C)C3=O)c(C)n2C(=O)c1ccc(Cl)cc1 [Compound A1]
- fluorescence signal in HeLa cells (two-photon confocal imaging) (HeLa cells): strong fluorescence signals
- fluorescence signal in HEK 293 cells (two-photon confocal imaging) (HEK 293 cells): no any fluorescence signal

SMILES: COc1ccc2c(c1)c(CC(=O)NCCCCCCNc1ccc3c4c(cccc14)-c1nc4ccc([N+](=O)[O-])cc4nc1-3)c(C)n2C(=O)c1ccc(Cl)cc1 [Compound A5]
- fluorescence signal in tumor tissue sections of mice' lungs (two-photon confocal imaging) [1]: strong fluorescence signals
- fluorescence signal in non-tumor tissue sections of mice' lungs (two-photon confocal imaging) [2]: no any fluorescence signals
- fluorescence signal in HeLa cells (two-photon confocal imaging) (HeLa cells): strong fluorescence signals
- fluorescence signal in HEK 293 cells (two-photon confocal imaging) (HEK 293 cells): no any fluorescence signal

SMILES: COc1ccc2c(c1)c(CC(=O)NCCCCCCNc1ccc3c4c1cccc4c(=O)n1c4ccccc4nc31)c(C)n2C(=O)c1ccc(Cl)cc1 [Compound A2]
- solubility [3]: 5 µM (≈ 3.62 µg/mL)
- fluorescence signal in tumor tissue sections of mice' lungs (two-photon confocal imaging) [1]: strong fluorescence signals
- fluorescence signal in non-tumor tissue sections of mice' lungs (two-photon confocal imaging) [2]: no any fluorescence signals
